Columns and labels:
[1] = test system: B6CBA-Tg(HDexon1)62Gpb/1J transgenic (R6/2) mice; assay: Simplified Irwin test in transgenic mice model of Huntington's disease; format: in vivo
Procedure: B6CBA-Tg(HDexon1)62Gpb/1J transgenic (R6/2) mice are transgenic for the 5-end of the human HD gene carrying (CAG) 115-(CAG) 150 repeat expansions. […] These symptoms appear between 6 and 8 weeks of age. […] Female B6CBa-Tg(HDexon1)62Gpb/1J transgenic mice (Jackson Laboratory, USA) were housed 5 per cage in an enriched environment under a light-dark cycle of 12 h-12 h (light on at 7.00 am, off at 7.00 pm) at a room temperature of 21±2° C., with 50±15% humidity. The mice had access to commercial mouse chow (mouse/rate breeding, ref. 9341 Provimi Kliba, Switzerland) and tap water. […] Two hours before the observations, animals were placed in individual cages. Measurements were first carried out in the individual cages. The animal's convulsions, tremors-twitches, stereotypies and vocalizations were recorded. The animal was then placed in a 58.5×68.5 cm open field with a 6 cm rim and observed for approximately 3 minutes. Gait characteristics were ranked. The presence of convulsions or tremors-twitches and stereotypies was again noted. At the end of the 3 minutes, the number of faecal boluses and pools of urine was recorded. The mice were then returned to their individual cages after testing. Group 1: hemizygote Transgenic B6CBA-Tg(HDexon 1)62Gpb/1J mice treated with vehicle i.p. once a day for 4 days (from day 0 to day 3) Group 2: hemizygote Transgenic B6CBA-Tg(HDexon 1)62Gpb/1J mice treated with 5 mg/kg i.p. of test item once a day for 4 days (from day 0 to day 3) […] • Test item administration • Simplified Irwin test, 40 minutes after administration • Rotarod test, immediately after the simplified Irwin test • Test item administration • Simplified Irwin test, 40 min after administration • Rotarod test, immediately after simplified #Irwin test • Test item administration • Simplified Irwin test, 40 min after administration • Locomotor activity test, immediately after the simplified Irwin test Simplified Irwin scores were analysed using non-parametric Mann-Whitney's U test. Locomotor activity data were analysed using Dunnett's t-test. Rotarod scores were analysed using the non-parametric Mann-Whitney's U-test. Statistical analyses were performed using the software Statview SE^+graphics software, Brain Power.

[2] = target: 5-hydroxytryptamine isoform 1b (Homo sapiens, UniProt P28222); assay: 5-hydroxytryptamine 1b inhibition; format: binding
[3] = target: Dopamine Transporter (DAT) (Homo sapiens, UniProt Q01959); assay: Dopamine Transporter (DAT) binding
[4] = home cage, Day 0 after administration, 5 mg/kg i.p. once a day Day 0-3
[5] = home cage, Day 0 before administration, 5 mg/kg i.p. once a day Day 0-3
[6] = home cage, Day 1, 5 mg/kg i.p. once a day Day 0-3
[7] = home cage, Day 2, 5 mg/kg i.p. once a day Day 0-3
[8] = home cage, Day 3, 5 mg/kg i.p. once a day Day 0-3
[9] = open field, Day 0 after administration, 5 mg/kg i.p. once a day Day 0-3
[10] = open field, Day 0 before administration, 5 mg/kg i.p. once a day Day 0-3
[11] = open field, Day 1, 5 mg/kg i.p. once a day Day 0-3
[12] = open field, Day 2, 5 mg/kg i.p. once a day Day 0-3
[13] = open field, Day 3, 5 mg/kg i.p. once a day Day 0-3
[14] = open field, Day 17, 5 mg/kg i.p. once a day Day 0-3
[15] = open field, Day 21, 5 mg/kg i.p. once a day Day 0-3
[16] = open field, Day 24, 5 mg/kg i.p. once a day Day 0-3
[17] = open field, Day 27, 5 mg/kg i.p. once a day Day 0-3
[18] = open field, Day 31, 5 mg/kg i.p. once a day Day 0-3
[19] = period of 17 to 24 days after administration

Chain of 5-hydroxytryptamine isoform 1b (P28222 whole entry, canonical isoform): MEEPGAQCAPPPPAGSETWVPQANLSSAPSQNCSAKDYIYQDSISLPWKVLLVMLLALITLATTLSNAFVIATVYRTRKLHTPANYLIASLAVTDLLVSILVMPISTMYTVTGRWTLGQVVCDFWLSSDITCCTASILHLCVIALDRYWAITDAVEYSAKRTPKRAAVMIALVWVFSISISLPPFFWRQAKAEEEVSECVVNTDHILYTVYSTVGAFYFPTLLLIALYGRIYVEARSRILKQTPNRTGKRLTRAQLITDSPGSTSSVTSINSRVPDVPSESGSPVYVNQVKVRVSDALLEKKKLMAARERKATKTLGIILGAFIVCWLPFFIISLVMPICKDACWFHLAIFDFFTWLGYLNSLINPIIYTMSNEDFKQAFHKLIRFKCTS
Chain of Dopamine Transporter (DAT) (Q01959 whole entry, species assumed): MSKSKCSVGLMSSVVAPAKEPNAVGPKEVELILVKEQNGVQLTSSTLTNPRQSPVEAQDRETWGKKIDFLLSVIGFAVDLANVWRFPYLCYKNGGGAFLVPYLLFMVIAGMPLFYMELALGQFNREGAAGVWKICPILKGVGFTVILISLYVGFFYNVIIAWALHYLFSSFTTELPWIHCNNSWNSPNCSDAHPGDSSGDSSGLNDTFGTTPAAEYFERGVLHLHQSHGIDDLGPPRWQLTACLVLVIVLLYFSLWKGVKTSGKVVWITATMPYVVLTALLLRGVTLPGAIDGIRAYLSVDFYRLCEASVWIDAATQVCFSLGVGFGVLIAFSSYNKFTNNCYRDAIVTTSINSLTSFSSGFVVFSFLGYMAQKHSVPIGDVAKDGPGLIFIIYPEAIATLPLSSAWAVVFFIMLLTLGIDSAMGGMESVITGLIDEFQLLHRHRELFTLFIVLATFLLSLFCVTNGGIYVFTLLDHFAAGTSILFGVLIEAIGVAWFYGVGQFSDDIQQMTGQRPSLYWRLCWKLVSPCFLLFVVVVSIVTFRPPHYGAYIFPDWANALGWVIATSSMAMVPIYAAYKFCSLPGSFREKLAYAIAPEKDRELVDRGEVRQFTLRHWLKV

In the case of COc1cc2c(cc1OC)[C@H]1C[C@H](O)[C@@H](CC(C)C)CN1CC2 (single isomer, unassigned) [Isomer B], the “incidences of involuntary movements such as involuntary chorea, tremors and twitches” value ([1]; after 21 days versus prior to administration) is reported as “no worse after 21 days than they had been prior to administration”, the Convulsions [1, 4] is reported as 0.13 and the “Grooming” value [1, 4] is reported as 7.38 s. For the same compound, the Stereotypies [1, 4] was “— (Sign never observed (equivalent to 0.00 ± 0.00))”, the Tremors-Twitches [1, 4] was 1.13 and the Vocalization [1, 4] was “— (Sign never observed (equivalent to 0.00 ± 0.00))”. For the same compound, the Convulsions [1, 5] was 0.22, the “Grooming” value [1, 5] was 10.00 s and the Stereotypies [1, 5] was “— (Sign never observed (equivalent to 0.00 ± 0.00))”. For the same compound, the Tremors-Twitches [1, 5] was 1.44, the Vocalization [1, 5] was “— (Sign never observed (equivalent to 0.00 ± 0.00))” and the Convulsions [1, 6] was “— (Sign never observed (equivalent to 0.00 ± 0.00))”. For the same compound, the “Grooming (sec)” value [1, 6] was “— (Sign never observed (equivalent to 0.00 ± 0.00))”, the Stereotypies [1, 6] was “— (Sign never observed (equivalent to 0.00 ± 0.00))” and the Tremors-Twitches [1, 6] was 1.00. The Vocalization [1, 6] was “— (Sign never observed (equivalent to 0.00 ± 0.00))”, the Convulsions [1, 7] was “— (Sign never observed (equivalent to 0.00 ± 0.00))” and the “Grooming” value [1, 7] was 7.78 s. The Stereotypies [1, 7] was “— (Sign never observed (equivalent to 0.00 ± 0.00))”, the Tremors-Twitches [1, 7] was 0.78 and the Vocalization [1, 7] was “— (Sign never observed (equivalent to 0.00 ± 0.00))”. For the same compound, the Convulsions [1, 8] was 0.11, the “Grooming” value [1, 8] was 4.22 s and the Stereotypies [1, 8] was “— (Sign never observed (equivalent to 0.00 ± 0.00))”. For the same compound, the Tremors-Twitches [1, 8] was 1.00, the Vocalization [1, 8] was “— (Sign never observed (equivalent to 0.00 ± 0.00))” and the Convulsions [1, 9] was 0.67. For the same compound, the “Defecation (N° of boluses)” value [1, 9] was 1.44 N° of boluses, the Gait [1, 9] was 0.33 and the “Grooming” value [1, 9] was 3.11 s. The Stereotypies [1, 9] was 0.11, the Tremors-Twitches [1, 9] was 1.89 and the “Urination (N° of pools)” value [1, 9] was 0.44 N° of pools. The Vocalisation [1, 9] was 0.22, the Convulsions [1, 10] was “— (Sign never observed (equivalent to 0.00 ± 0.00))” and the “Defecation (N° of boluses)” value [1, 10] was 2.56 N° of boluses. The Gait [1, 10] was 1.11, the “Grooming” value [1, 10] was 19.44 s and the Stereotypies [1, 10] was “— (Sign never observed (equivalent to 0.00 ± 0.00))”. For the same compound, the Tremors-Twitches [1, 10] was 2.11, the “Urination (N° of pools)” value [1, 10] was 0.67 N° of pools and the Vocalisation [1, 10] was 0.44. The Convulsions [1, 11] was 0.11, the “Defecation (N° of boluses)” value [1, 11] was 0.89 N° of boluses and the Gait [1, 11] was 1.00. The “Grooming” value [1, 11] was 7.78 s, the Stereotypies [1, 11] was “— (Sign never observed (equivalent to 0.00 ± 0.00))” and the Tremors-Twitches [1, 11] was 2.33. For the same compound, the “Urination (N° of pools)” value [1, 11] was 0.11 N° of pools, the Vocalisation [1, 11] was 0.67 and the Convulsions [1, 12] was “— (Sign never observed (equivalent to 0.00 ± 0.00))”. The “Defecation (N° of boluses)” value [1, 12] was 1.22 N° of boluses, the Gait [1, 12] was 0.67 and the “Grooming” value [1, 12] was 20.56 s. The Stereotypies [1, 12] was “— (Sign never observed (equivalent to 0.00 ± 0.00))”, the Tremors-Twitches [1, 12] was 2.00 and the “Urination (N° of pools)” value [1, 12] was 0.33 N° of pools. For the same compound, the Vocalisation [1, 12] was 0.89, the Convulsions [1, 13] was “— (Sign never observed (equivalent to 0.00 ± 0.00))” and the “Defecation (N° of boluses)” value [1, 13] was 1.33 N° of boluses. For the same compound, the Gait [1, 13] was 2.33, the “Grooming” value [1, 13] was 12.67 s and the Stereotypies [1, 13] was “— (Sign never observed (equivalent to 0.00 ± 0.00))”. For the same compound, the Tremors-Twitches [1, 13] was 1.78, the “Urination (N° of pools)” value [1, 13] was 0.11 N° of pools and the Vocalisation [1, 13] was 0.89. For the same compound, the Convulsions [1, 14] was 0.67, the “Defecation (N° of boluses)” value [1, 14] was 2.67 N° of boluses and the Gait [1, 14] was 1.56. The “Grooming” value [1, 14] was 20.33 s, the Stereotypies [1, 14] was “— (Sign never observed (equivalent to 0.00 ± 0.00))” and the Tremors-Twitches [1, 14] was 1.44. For the same compound, the “Urination (N° of pools)” value [1, 14] was 0.22 N° of pools, the Vocalisation [1, 14] was 0.22 and the Convulsions [1, 15] was “— (Sign never observed (equivalent to 0.00 ± 0.00))”. The “Defecation (N° of boluses)” value [1, 15] was 2.44 N° of boluses, the Gait [1, 15] was 1.67 and the “Grooming” value [1, 15] was 17.67 s. For the same compound, the Stereotypies [1, 15] was “— (Sign never observed (equivalent to 0.00 ± 0.00))”, the Tremors-Twitches [1, 15] was 1.67 and the “Urination (N° of pools)” value [1, 15] was 0.11 N° of pools. The Vocalisation [1, 15] was 0.44, the Convulsions [1, 16] was “— (Sign never observed (equivalent to 0.00 ± 0.00))” and the “Defecation (N° of boluses)” value [1, 16] was 1.33 N° of boluses. For the same compound, the Gait [1, 16] was 2.17, the “Grooming” value [1, 16] was 18.22 s and the Stereotypies [1, 16] was “— (Sign never observed (equivalent to 0.00 ± 0.00))”. For the same compound, the Tremors-Twitches [1, 16] was 2.44, the “Urination (N° of pools)” value [1, 16] was 0.33 N° of pools and the Vocalisation [1, 16] was 0.44. For the same compound, the Convulsions [1, 17] was “— (Sign never observed (equivalent to 0.00 ± 0.00))”, the “Defecation (N° of boluses)” value [1, 17] was 2.33 N° of boluses and the Gait [1, 17] was 2.56. The “Grooming” value [1, 17] was 25.33 s, the Stereotypies [1, 17] was “— (Sign never observed (equivalent to 0.00 ± 0.00))” and the Tremors-Twitches [1, 17] was 2.11. For the same compound, the “Urination (N° of pools)” value [1, 17] was 0.44 N° of pools, the Vocalisation [1, 17] was 0.00 and the Convulsions [1, 18] was “— (Sign never observed (equivalent to 0.00 ± 0.00))”. The “Defecation (N° of boluses)” value [1, 18] was 1.44 N° of boluses, the Gait [1, 18] was 2.33 and the “Grooming” value [1, 18] was 19.11 s. For the same compound, the Stereotypies [1, 18] was “— (Sign never observed (equivalent to 0.00 ± 0.00))”, the Tremors-Twitches [1, 18] was 2.67 and the “Urination (N° of pools)” value [1, 18] was 0.11 N° of pools. For the same compound, the Vocalisation [1, 18] was 0.22, the “deterioration (progression of symptoms) versus control mice” value [1, 19] was “significantly less deterioration than the control mice” and the deterioration in gait [1, 19] was “substantially arrested or slowed”. The “progression of symptoms of Huntington's disease (involuntary movements, deterioration in gait)” value ([1]; transgenic mouse model of Huntington's disease) was “shown to arrest the progression of a number of symptoms of Huntington's disease”, the “inhibitory activity against 5-hydroxytryptamine isoform 1b” value [2] was “no inhibitory activity” and the “Dopamine Transporter (DAT) binding activity” value [3] was “lack Dopamine Transporter (DAT) binding activity”.

From patent US20080319000A1, “Use of 3,1IB-Cis-Dihydrotetrabenazine for the Treatment of Symptoms of Huntingtons Disease” (CAMBRIDGE LABORATORIES (IRELAND) LIMITED, priority 2005, published 2008)
